One data set deals with Histone deacetylase 1 (Homo sapiens, UniProt Q13547). Nature of the data set: Inhibition of recombinant human HDAC1 using Boc-Lys (acetyl)-AMC as substrate preincubated with compound for 1 hr followed by substrate addition and measured after 30 mins by microplate reader assay.
A further data set addresses Histone deacetylase 3 (Homo sapiens, UniProt O15379). Nature of the data set: Inhibition of recombinant human HDAC3 using Boc-Lys (acetyl)-AMC as substrate preincubated with compound for 1 hr followed by substrate addition and measured after 30 mins by microplate reader assay.
The target in data set [1] is T1, Protein deacetylase HDAC6 (Homo sapiens, UniProt Q9UBN7).
T1 sequence (Q9UBN7 whole entry): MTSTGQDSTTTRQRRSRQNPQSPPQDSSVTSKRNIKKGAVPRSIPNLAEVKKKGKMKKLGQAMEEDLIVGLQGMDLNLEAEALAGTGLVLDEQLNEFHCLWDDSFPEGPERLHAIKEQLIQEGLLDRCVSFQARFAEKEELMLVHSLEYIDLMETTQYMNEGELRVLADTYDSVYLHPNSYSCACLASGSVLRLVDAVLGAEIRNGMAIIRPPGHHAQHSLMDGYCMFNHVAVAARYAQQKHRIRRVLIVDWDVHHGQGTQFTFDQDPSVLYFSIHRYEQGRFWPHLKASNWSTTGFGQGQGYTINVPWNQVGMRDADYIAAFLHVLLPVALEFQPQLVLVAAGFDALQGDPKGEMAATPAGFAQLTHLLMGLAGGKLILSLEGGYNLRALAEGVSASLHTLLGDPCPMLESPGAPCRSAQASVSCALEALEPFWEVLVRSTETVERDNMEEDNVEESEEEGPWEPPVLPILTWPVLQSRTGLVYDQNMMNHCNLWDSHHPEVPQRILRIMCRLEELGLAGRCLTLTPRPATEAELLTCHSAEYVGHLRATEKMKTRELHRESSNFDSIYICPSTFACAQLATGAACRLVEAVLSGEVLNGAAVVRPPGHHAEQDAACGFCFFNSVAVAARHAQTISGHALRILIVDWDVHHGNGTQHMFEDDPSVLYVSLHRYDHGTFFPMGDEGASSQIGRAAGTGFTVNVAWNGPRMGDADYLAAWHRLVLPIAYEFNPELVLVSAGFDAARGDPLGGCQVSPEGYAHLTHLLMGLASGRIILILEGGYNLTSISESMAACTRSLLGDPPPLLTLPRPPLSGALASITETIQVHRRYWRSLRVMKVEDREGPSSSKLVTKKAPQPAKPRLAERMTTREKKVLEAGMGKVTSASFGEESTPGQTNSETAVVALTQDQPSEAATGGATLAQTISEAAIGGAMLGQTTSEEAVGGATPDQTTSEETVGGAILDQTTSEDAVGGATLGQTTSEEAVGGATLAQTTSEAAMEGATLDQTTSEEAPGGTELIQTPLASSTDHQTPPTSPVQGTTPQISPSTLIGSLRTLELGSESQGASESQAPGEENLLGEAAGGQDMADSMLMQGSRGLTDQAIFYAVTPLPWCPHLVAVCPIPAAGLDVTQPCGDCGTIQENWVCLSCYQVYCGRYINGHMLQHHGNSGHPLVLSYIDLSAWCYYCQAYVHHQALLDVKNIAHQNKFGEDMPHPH
Nature of the data set: Inhibition of recombinant human HDAC6 using Boc-Lys (acetyl)-AMC as substrate preincubated with compound for 1 hr followed by substrate addition and measured after 30 mins by microplate reader assay.

The target of the next data set is Histone deacetylase 7 (Homo sapiens, UniProt Q8WUI4). Put plainly: Inhibition of recombinant human HDAC7 using Boc-Lys (trifluroacetyl)-AMC as substrate preincubated with compound for 1 hr followed by substrate addition and measured after 30 mins by microplate reader assay.
Another data set deals with Histone deacetylase 11 (Homo sapiens, UniProt Q96DB2). Put plainly: Inhibition of recombinant human HDAC11 using Boc-Lys (trifluroacetyl)-AMC as substrate preincubated with compound for 1 hr followed by substrate addition and measured after 30 mins by microplate reader assay.
Data set [2] has as its target Signal transducer and activator of transcription 1-alpha/beta (Homo sapiens, UniProt P42224). Put plainly: Binding affinity to STAT1 (unknown origin) assessed as dissociation constant by SPR assay.
Data set [3] concerns A549. Put plainly: cells. It counts as functional, cell-based. Conditions: Homo sapiens, A549, 72 h.
Description: Antiproliferative activity against human A549 cells assessed as inhibition of cell proliferation incubated for 72 hrs by CCK-8 assay
For data set [4], the target named is Signal transducer and activator of transcription 3 (Homo sapiens, UniProt P40763). Nature of the data set: Inhibition of STAT3 (unknown origin) in human A549 cells incubated for 4 hrs by Cellular thermal shift assay. It counts as cell-based.
Data set [5] addresses T2, Class 1 histone deacetylase (Homo sapiens) (UniProt Q13547+O15379+Q92769+Q9BY41). Nature of the data set: Inhibition of class 1 HDAC in human A549 cells assessed as increase in […] at 0.5 uM incubated for 12 hrs by Western blot analysis. It counts as cell-based.
The target in data set [6] is T2, Class 1 histone deacetylase (Homo sapiens). Put plainly: Inhibition of class 1 HDAC in human A549 cells assessed as increase in Ac-histone H3 level at 0.5 uM incubated for 12 hrs by Western blot analysis. It counts as cell-based.
Data set [7] concerns A549. Put plainly: Effect on Bcl-2 protein level in human A549 cells at 4 uM incubated for 12 hrs by Western blot analysis. In kind it is functional, cell-based.
Data set [8] deals with A549. Put plainly: Induction of autophagy in human A549 cells transfected with mRFP-GFP-LC3 assessed as decrease in P62 protein level at 0.5 uM incubated for 12 hrs by Western blot analysis. In kind it is functional, cell-based.
Data set [9] has as its system A549. Nature of the data set: Induction of apoptosis in human A549 cells assessed as late apoptotic cells at 2 uM incubated for 24 hrs by Annexin V-FITC/PI staining based flow cytometric analysis (reference value: 2.18%). It counts as functional.
Data set [10] deals with A549. Nature of the data set: Induction of apoptosis in human A549 cells assessed as necrotic cells at 4 uM incubated for 24 hrs by Annexin V-FITC/PI staining based flow cytometric analysis (reference value: 1.20%). It counts as functional.
For data set [11], the system named is A549. Put plainly: Induction of apoptosis in human A549 cells at 2 uM incubated for 24 hrs by Annexin V-FITC/PI staining based flow cytometric analysis. In kind it is functional.
Data set [12] in a line: Toxicity in female BALB/c nu/nu mouse xenografted with human A549 cells assessed as effect on heart at 2.5 mg/kg, iv by H and E staining based analysis. It counts as organism-based. The note with it: in vivo.
Data set [13] can be described thus: Toxicity in female BALB/c nu/nu mouse xenografted with human A549 cells assessed as effect on body weight at 5 mg/kg, iv using self assembled nanoparticle as source of compound and measured regularly. It counts as organism-based. The note with it: in vivo.
The nature of data set [14]: Biodistribution in heart of nude mouse xenografted with A549 cells at 5 mg/kg, iv using chlorine e6 loaded self-assembled nanoparticle as source of compound incubated for 24 hrs by ex-vivo fluorescence based LC-MS/MS analysis. It counts as ADME, organism-based.
In data set [15] the test system is A549. Put plainly: In vivo antitumor activity against human A549 cells xenografted in female BALB/c nu/nu mouse assessed as Ac-Histone H3 at 5 mg/kg, iv administered every 3 days for 18 days by Western blotting analysis. Conditions: time 3.0 day.
A short description of data set [16]: Drug accumulation in tumor of nude mouse xenografted with A549 cells assessed as increase in fluorescence at 5 mg/kg, iv using chlorine e6 loaded self assembled nanoparticle as source of compound by in vivo fluorescence imaging.

Calls of active or inactive are those of the source. No cut-off for these calls is given here.

T2 sequence (O15379 whole entry, looked up): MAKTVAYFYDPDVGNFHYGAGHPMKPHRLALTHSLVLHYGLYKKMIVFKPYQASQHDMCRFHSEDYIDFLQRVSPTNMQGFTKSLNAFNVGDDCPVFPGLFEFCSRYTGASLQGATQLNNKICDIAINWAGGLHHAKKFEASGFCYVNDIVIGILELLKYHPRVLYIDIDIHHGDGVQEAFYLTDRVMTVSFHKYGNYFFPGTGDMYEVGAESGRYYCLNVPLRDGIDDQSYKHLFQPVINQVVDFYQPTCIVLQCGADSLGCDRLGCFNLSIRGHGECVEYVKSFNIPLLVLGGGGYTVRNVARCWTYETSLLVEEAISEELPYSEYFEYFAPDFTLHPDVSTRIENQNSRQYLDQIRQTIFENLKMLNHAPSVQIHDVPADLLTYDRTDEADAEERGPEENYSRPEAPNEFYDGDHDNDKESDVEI
T2 sequence (Q13547 whole entry, looked up): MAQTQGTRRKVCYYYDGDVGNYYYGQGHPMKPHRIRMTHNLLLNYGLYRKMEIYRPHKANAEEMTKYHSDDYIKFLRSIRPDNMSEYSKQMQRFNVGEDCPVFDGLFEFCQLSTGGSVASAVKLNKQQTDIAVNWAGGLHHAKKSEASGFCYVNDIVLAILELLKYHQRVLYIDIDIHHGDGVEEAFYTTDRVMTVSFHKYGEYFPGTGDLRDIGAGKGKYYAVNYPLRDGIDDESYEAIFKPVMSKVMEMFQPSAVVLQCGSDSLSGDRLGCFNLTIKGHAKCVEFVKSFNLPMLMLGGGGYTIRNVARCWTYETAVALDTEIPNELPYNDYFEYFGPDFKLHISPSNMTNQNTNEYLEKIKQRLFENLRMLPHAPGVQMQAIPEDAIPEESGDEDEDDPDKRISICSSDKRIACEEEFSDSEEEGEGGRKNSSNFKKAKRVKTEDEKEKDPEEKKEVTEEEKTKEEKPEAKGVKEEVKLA
T2 sequence (Q92769 whole entry, looked up): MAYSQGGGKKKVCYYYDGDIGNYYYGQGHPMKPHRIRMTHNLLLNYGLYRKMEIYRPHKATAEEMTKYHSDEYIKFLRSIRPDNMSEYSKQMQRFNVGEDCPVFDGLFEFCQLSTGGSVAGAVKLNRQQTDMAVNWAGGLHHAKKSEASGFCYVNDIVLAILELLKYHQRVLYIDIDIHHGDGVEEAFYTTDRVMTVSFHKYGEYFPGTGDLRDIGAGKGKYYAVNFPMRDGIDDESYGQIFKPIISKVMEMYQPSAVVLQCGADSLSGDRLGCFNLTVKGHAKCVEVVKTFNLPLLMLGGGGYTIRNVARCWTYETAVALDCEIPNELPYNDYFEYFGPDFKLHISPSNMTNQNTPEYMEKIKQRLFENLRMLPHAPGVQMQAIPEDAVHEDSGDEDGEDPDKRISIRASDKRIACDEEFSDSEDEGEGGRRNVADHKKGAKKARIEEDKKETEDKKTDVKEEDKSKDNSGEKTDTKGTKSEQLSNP
T2 sequence (Q9BY41 whole entry, looked up): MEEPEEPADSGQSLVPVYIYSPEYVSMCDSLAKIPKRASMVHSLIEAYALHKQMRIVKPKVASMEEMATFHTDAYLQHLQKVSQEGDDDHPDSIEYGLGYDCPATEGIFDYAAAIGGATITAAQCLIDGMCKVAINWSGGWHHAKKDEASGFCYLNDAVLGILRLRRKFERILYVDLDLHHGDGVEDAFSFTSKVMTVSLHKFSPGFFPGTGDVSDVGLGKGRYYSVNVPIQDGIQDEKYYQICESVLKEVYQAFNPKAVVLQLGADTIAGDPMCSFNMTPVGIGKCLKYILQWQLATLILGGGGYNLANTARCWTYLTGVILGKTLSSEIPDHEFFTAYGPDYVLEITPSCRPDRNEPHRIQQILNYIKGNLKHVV
Sequence of Histone deacetylase 11 (Q96DB2 whole entry): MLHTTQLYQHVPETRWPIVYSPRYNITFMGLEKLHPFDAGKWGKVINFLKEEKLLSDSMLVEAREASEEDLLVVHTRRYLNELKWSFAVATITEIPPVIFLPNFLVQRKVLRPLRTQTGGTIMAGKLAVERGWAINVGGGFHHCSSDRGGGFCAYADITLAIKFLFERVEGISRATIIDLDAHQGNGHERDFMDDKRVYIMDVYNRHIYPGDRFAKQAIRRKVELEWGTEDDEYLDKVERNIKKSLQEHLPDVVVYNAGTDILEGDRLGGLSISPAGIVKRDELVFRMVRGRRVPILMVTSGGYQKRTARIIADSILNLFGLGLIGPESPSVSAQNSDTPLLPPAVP
Sequence of Histone deacetylase 3 (O15379 whole entry): as the sequence (O15379 whole entry, looked up) above
Sequence of Signal transducer and activator of transcription 1-alpha/beta (P42224 whole entry): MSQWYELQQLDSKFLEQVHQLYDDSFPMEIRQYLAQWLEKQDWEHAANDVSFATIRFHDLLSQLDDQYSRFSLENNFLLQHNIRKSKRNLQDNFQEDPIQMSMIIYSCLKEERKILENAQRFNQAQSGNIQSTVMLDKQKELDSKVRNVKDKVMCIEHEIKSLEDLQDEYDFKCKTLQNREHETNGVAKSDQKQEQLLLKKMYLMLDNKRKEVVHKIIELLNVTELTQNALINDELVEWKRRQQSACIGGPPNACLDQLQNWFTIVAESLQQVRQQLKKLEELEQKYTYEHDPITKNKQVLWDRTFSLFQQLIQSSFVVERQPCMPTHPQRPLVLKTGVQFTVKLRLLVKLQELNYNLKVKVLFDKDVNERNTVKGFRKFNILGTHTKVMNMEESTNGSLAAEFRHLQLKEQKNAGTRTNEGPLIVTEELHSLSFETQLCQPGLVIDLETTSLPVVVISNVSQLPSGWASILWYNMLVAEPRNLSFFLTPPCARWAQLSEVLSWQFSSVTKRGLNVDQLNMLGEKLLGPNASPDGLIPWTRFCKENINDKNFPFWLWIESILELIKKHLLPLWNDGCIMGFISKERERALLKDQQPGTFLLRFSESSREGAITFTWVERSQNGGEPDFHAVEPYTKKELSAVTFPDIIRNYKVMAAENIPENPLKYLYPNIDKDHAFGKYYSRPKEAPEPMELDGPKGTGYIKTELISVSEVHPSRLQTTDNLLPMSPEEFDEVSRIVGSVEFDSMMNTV
Sequence of Signal transducer and activator of transcription 3 (P40763 whole entry): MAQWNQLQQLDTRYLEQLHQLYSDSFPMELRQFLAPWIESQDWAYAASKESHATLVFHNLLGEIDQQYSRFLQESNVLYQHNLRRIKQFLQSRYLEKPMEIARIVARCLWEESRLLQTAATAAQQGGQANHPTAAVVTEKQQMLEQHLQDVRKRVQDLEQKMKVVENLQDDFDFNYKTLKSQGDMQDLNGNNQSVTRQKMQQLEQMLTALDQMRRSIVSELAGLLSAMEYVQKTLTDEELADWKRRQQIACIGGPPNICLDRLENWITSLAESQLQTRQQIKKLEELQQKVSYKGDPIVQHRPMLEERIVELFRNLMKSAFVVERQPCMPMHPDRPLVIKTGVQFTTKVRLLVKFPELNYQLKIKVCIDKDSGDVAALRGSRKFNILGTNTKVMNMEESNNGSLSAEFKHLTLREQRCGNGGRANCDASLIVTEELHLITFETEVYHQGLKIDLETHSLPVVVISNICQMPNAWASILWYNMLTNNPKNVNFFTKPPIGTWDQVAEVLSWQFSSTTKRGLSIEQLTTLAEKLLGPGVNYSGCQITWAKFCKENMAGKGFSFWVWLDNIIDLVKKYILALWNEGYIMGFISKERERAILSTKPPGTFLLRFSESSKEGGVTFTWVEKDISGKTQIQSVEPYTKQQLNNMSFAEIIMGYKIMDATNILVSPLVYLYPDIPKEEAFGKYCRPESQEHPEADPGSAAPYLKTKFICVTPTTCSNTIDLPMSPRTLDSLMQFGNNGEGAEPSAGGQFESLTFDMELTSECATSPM
Sequence of Histone deacetylase 7 (Q8WUI4 whole entry): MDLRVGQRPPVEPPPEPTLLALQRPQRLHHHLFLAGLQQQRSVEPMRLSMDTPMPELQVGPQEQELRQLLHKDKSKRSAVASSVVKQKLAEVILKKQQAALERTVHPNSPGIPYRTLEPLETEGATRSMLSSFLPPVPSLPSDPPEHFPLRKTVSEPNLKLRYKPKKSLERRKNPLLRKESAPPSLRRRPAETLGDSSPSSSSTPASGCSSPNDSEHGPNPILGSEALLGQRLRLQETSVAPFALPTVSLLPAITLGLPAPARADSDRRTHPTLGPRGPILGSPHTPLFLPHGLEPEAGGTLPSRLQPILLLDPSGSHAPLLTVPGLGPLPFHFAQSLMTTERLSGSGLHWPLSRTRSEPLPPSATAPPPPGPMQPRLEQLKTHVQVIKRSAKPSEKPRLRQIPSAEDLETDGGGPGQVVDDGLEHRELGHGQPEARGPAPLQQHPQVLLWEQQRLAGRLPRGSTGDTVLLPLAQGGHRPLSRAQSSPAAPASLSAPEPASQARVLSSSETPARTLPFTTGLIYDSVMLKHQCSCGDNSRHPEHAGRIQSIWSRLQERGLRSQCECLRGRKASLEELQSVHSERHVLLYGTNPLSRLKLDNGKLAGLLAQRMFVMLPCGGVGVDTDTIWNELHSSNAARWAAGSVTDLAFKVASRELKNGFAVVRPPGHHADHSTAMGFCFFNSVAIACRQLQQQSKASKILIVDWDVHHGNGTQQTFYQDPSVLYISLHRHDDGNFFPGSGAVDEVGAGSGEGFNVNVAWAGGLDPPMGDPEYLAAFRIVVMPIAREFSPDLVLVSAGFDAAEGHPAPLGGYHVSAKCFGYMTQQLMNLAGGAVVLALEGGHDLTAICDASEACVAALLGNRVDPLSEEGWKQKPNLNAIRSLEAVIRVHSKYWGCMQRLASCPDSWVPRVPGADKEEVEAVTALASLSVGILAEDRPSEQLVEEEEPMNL
Sequence of Histone deacetylase 1 (Q13547 whole entry): as the sequence (Q13547 whole entry, looked up) above

With `C=C1C(=O)O[C@@H]2C[C@@]3(C)CC[C@@H](OC(=O)[C@H](C)NC(=O)c4ccc(/C=C/C(=O)NO)cc4)C(=C)[C@@H]3C[C@H]12`, the half-inhibitory concentration (IC50) on Histone deacetylase 1 is 62 nM; at Histone deacetylase 3, 51.9 nM; in data set [1], 7.69 nM; at Histone deacetylase 7, > 10000 nM; on Histone deacetylase 11 it was 265 nM; in the data set with A549 [3], 120 nM. Also, in data set [2], the Kd entry was “Not Active”. For the same compound, the inhibition result in data set [4], in data set [5] and in data set [6] was “Active” throughout. Besides, the result with A549 [7] was inactive. Further, the outcome with A549 [8] and in the data set on A549 [15] was Active. Besides, the Activity is given as 11.86% in the data set with A549 [9]; 2.99% with A549 [10]; 15% in the data set on A549 [11]; “Non-Toxic” in [12]; “Non-Toxic” in [13]. Moreover, the Drug uptake entry in [14] and in [16] was “Active” each time.

The record behind these values is ChEMBL document CHEMBL6071142, “Isoalantolactone/hydroxamic acid hybrids as potent dual STAT3/HDAC inhibitors and self-assembled nanoparticles for cancer therapy” (Eur J Med Chem, 2024).
